# In patent publication US20070249729A1, “Method of Treating Elevated Plasma Homocysteine Levels in Esrd Patients” (priority 2003, published 2007):
# Where “and” joins values, the source holds several entries; their conditions need not be identical. Identical values can stand only once.
# Tests used:
# [1] = isolated perfused rat liver; cited from earlier work
# plasma tHcy = details: oral, 4 weeks of treatment, patients on hemodialysis; cited from earlier work
# protein bound Hcy = protein bound Hcy (Homo sapiens, UniProt P02768); experiment: In vitro thiol exchange assay (free dialyzable Hcy in plasma/serum); details: for AUC of free Hcy vs time: 300 μM, plasma of healthy subjects, n=6, mean +/-SE
# Chain of protein bound Hcy (P02768 25-609): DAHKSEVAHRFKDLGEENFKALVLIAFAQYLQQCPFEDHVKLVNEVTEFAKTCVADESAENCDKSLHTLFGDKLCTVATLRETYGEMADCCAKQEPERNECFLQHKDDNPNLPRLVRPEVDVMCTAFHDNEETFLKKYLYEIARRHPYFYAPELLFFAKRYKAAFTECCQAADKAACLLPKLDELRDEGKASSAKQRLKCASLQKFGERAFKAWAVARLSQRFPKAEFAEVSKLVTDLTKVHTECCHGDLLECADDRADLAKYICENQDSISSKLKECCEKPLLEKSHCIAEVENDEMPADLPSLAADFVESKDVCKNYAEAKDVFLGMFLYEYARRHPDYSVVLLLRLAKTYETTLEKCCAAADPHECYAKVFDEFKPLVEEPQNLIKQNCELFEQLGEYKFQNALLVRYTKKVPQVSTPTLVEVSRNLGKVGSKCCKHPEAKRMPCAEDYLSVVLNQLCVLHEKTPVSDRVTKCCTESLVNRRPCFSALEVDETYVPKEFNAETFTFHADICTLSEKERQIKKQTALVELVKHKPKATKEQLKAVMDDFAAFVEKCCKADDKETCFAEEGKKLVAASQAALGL
# Protocol: To determine the efficacy of Mesna in vitro a thiol exchange assay was developed. This assay evaluates the ability of thiol-containing drugs to exchange with protein bound Hcy and other thiols yielding a larger free, dialyzable fraction of Hcy. 60 mL of blood was drawn from 6 healthy subjects and plasma was obtained by centrifugation at 1500×g. D,L Homocysteine was then added to each plasma sample to a final concentration of 30 μM. The samples were allowed to equilibrate at 4° C. for 72 hours to allow covalent, disulfide bonding of Hcy to plasma proteins. To conduct each assay, 380 μL of the aforementioned plasma was pipetted into a 1.7 mL polypropylene snap-cap tube. 20 uL of Mesna (diluted in 4 mM ethylenediaminetetraacetic acid disodium salt (EDTA), pH=7) was then added to the sample to final concentrations ranging from 0 μM (EDTA vehicle) to 10 000 μM. The sample was incubated for 30 minutes at 37° C. 50 μL aliquots were removed at 0, 2, 5, 10, 15 and 30 at which time plasma proteins were precipitated with 25 μL of 15% sulphosalicylic acid. […] Results for each concentration of Mesna are mean +/−SE, n=6.
# Numerous compounds that may modulate protein binding and thiol exchange accumulate in the serum of patients with end-stage renal disease (ESRD). To verify that none of these compounds alter Mesna's exchange with protein bound Hcy, a single concentration of Mesna (300 μM) was tested in a thiol exchange assay (described in Example 4) in serum from patients with ESRD or healthy controls.
# The in vitro thiol exchange potential of Mesna was compared with another thiol-containing drug, n-acetylcysteine (NAC) by the thiol exchange assay described in Example 4. 300 μM NAC was compared with 150 and 300 μM Mesna in the plasma of healthy subjects.
# albumin bound Hcy = albumin bound Hcy (Homo sapiens, UniProt P02768); details: 305 μmol/L Mesna
# Chain of albumin bound Hcy (P02768 25-609): as above
# Protocol: Plasma was supplemented with reduced homocysteine (30 μmol/L) and allowed to equilibrate with protein and endogenous thiols for 72 hours. Mesna or diluent (control) was then added to the plasma and incubated at 37° C. for 15 minutes. 1 ml of plasma was pipetted into a micropartition device and centrifuged at 1500×g for 10 minutes. Free (dialyzable) Hcy was then determined in the ultrafiltrate.
# 30 ml of blood (EDTA) was obtained from a healthy subject with normal renal function. The blood was immediately centrifuged at 1500×g and the plasma was separated. D,L Homocysteine was then added to the plasma to a final concentration of 30 μmol/L. The sample was incubated at 4° C. for 72 hours to allow the homocysteine to covalently bind to protein and other thiols. Mesna was added to 1 ml of plasma to a final concentration of 305 μmol/L. An equal volume of diluent was added to 1 ml of plasma as a control. The plasma (1 ml) was then incubated at 37° C. for 15 minutes after which it was pipetted into an Amicon (Amicon Canada, Oakville, Ontario) type YMT micropartition system for separation of free from protein bound solutes. The micropartition system was centrifuged at 1500 X g for 10 minutes and the ultrafiltrate obtained was stored at −20° C. until analysis.
# Total plasma Hcy and other low molecular weight thiols were measured by HPLC-FD after pre-column derivitization as described by Jacobsen et al.^20 Briefly, disulfide bonds were reduced with 1.43 M sodium borohydride. Excess reducing agent was consumed by the addition of 1.2 M HCl after which thiols were derivitized with monobromobimane. Protein was precipitated with 1.5 M perchloric acid and the sample pH was raised to ˜3.5 with a solution of 2M citrate and 10 N NaOH.
# Thiol amino acids were separated on a Waters Nova-Pak C18 (150×3.9 mm, 5μ) column. The mobile phase consisted of 4% acetonitrile/25 mM ammonium formate buffer, pH=3.8. Since Mesna is also a low molecular weight thiol it can also be measured as a bimane derivative, although it is very late eluting when the above mentioned chromatographic conditions are used. […]
# plasma tHcy and cysteine = experiment: Single dose pilot study, 5 maintenance hemodialysis patients: plasma and dialysate tHcy and cysteine; format: in vivo, human
# Protocol: Blood samples were drawn at selected intervals during a mid-week dialysis session during which no Mesna was given. One week later, subjects received a single, 5 mg/kg, pre-dialysis, intravenous dose of Mesna and blood samples were drawn throughout the dialysis session. Dialysate samples were also collected from 2 patients. […] A pre-dialysis plasma sample was also drawn before the next dialysis session 2 days later.
# [2] = tested on: total plasma Hcy and cysteine; experiment: In vivo pilot study, 3 ESRD hemodialysis patients, single iv Mesna: intra-dialytic plasma tHcy and cysteine; design: species or system human
# Text: 3 vitamin supplemented ([…], Landmark Medical Systems Inc. Unionville, Ontario) maintenance hemodialysis patients (2 males, 1 female) were recruited from the dialysis unit at London Health Sciences Centre-University Campus. Inclusion criteria were any vitamin supplemented patients on thrice weekly hemodialysis for at least 90 days who were willing to sign a letter of informed consent. Patients were excluded from the study if they had serum albumin≦30 g/L. The study protocol was approved by the human subject research ethics board at the University of Western Ontario. Patients were dialyzed with Fresenius Optiflux hollow fiber dialyzers (Fresenius AG, Bad Homburg, Germany). […] On day 5 (corresponding to the third dialysis session) blood samples were also drawn at various times throughout the dialysis treatment (0.5, 1.0, 2.0 and 3.0 hours) to determine baseline kinetic data. Undiluted ultrafiltrate was obtained from 2 patients by stopping the dialysate flow while maintaining the patient on ultrafiltration. Once 200 ml of dialysate had been displaced from the dialyzer, an undiluted ultrafiltrate sample was drawn from a port specially installed for the study. On the treatment day (a mid-week dialysis session corresponding to day 7 of the study), a single 5 mg/kg dose of Mesna was infused directly into the venous return on the dialysis machine over 5 minutes. […] Undiluted ultrafiltrate was also collected from 2 of the patients as described above. Pre- and post-dialysis blood samples were also drawn on each of the 3 subsequent dialysis treatments (corresponding to days 9, 12 and 14) to determine the duration of Mesna's action and how long it remains in the blood. […] Plasma and ultrafiltrate were stored at -20° C. until analysis. […] Results are shown as mean +/-SD. Intra-dialytic changes in tHcy and cysteine concentrations were analyzed by a paired students t-test.
# [3] = cited from earlier work
# [4] = Intra-dialytic Mesna kinetics in 3 ESRD hemodialysis patients; format: in vivo, human
# Protocol: (§1) To assess baseline total plasma Hcy concentrations, 5 ml blood samples (EDTA) were drawn pre- and post-dialysis for all 7 dialysis sessions during the 14 day study period. On day 5 (corresponding to the third dialysis session) blood samples were also drawn at various times throughout the dialysis treatment (0.5, 1.0, 2.0 and 3.0 hours) to determine baseline kinetic data. Undiluted ultrafiltrate was obtained from 2 patients by stopping the dialysate flow while maintaining the patient on ultrafiltration. Once 200 ml of dialysate had been displaced from the dialyzer, an undiluted ultrafiltrate sample was drawn from a port specially installed for the study. On the treatment day (a mid-week dialysis session corresponding to day 7 of the study), a single 5 mg/kg dose of Mesna was infused directly into the venous return on the dialysis machine over 5 minutes. Blood samples were drawn pre-dialysis, 4 minutes after Mesna administration, 0.5, 1.0, 2.0, 3.0 hours and post-dialysis. Undiluted ultrafiltrate was also collected from 2 of the patients as described above. Pre- and post-dialysis blood samples were also drawn on each of the 3 subsequent dialysis treatments (corresponding to days 9, 12 and 14) to determine the duration of Mesna's action and how long it remains in the blood. All blood samples were immediately placed on ice and centrifuged within 30 minutes at 1500×g for 10 minutes. Plasma and ultrafiltrate were stored at −20° C. until analysis.
# Therefore, the inventors modified the chromoatographic conditions such that 4% acetonitrile was run for 7 minutes and then a gradient of 4% to 70% acetonitrile was used from 7 to 20 minutes.
# [5] = Tolerability of Mesna in ESRD hemodialysis patients; format: in vivo, human
# Protocol: as §1, with “Plasma and ultrafiltrate were stored at −20° C. until analysis.” left out
# [6] = human, in vivo
# Protocol: To evaluate the in vivo effect of Mesna on plasma tHcy, 5 maintenance hemodialysis patients were recruited to participate in a single dose pilot study. Blood samples were drawn at selected intervals during a mid-week dialysis session during which no Mesna was given. One week later, subjects received a single, 5 mg/kg, pre-dialysis, intravenous dose of Mesna and blood samples were drawn throughout the dialysis session. Dialysate samples were also collected from 2 patients. Total Hcy and cysteine were measured in plasma and dialysate by the modified method of Jacobsen et al.^20 Mesna caused a profound, rapid decrease in plasma tHcy and cysteine (see FIG. 11 and 12). […] A pre-dialysis plasma sample was also drawn before the next dialysis session 2 days later. Plasma tHcy was 2.3 μM lower with Mesna than control (P=0.047) indicating a residual effect of Mesna on tHcy concentrations.
# Concentrations of Mesna were also measured in plasma (n=5) and dialysate (n=2) (see FIG. 13).
# [7] = tested on: plasma tHcy, fractional excretion of Hcy; experiment: Oral Mesna, Hcy clearance in 2 subjects with normal kidney function; format: in vivo, human
# Protocol: The effect of oral Mesna on Hcy clearance was also evaluated in 2 subjects with normal kidney function. The subjects fluid loaded by consuming 2 L of water the morning of the study day. An indwelling catheter was inserted into an appropriate arm vein. At the beginning of the study subjects were asked to void urine and 2×5 mL blood samples were drawn for analysis of tHcy and creatinine. Subsequent blood samples were drawn at 0.5, 1.0 and 1.5 hours for determination of baseline tHcy and creatinine. At these times subjects were also asked to void urine for measurement of urinary tHcy, creatinine and urine volume. Subjects were then given a 10 mg/kg oral dose of Mesna. One hour after the dose, subjects were asked to void their urine and 2×5 mL blood samples were drawn for determination of tHcy and creatinine. At 1.5, 2.0, and 2.5 hours after Mesna, blood samples were drawn for tHcy and creatinine analysis. Urine was also collected at these times for determination of urinary Hcy, creatinine and urinary volume. A final blood sample was drawn 4 hours after administration of Mesna. Mesna caused a slow, small (1.5 μM) decrease in plasma tHcy concentration in both subjects (see FIG. 14). Mesna was detectable in plasma however, maximum concentration (mean 88.6 μM) was less than the 5 mg/kg administered intravenously to dialysis patients (FIG. 15). The fractional excretion of Hcy ([CLHcy/CLCreat]*100) was assessed in the presence and absence of Mesna (see FIG. 16). In the absence of Mesna the fractional excretion of Hcy was only 0.1%. When Mesna was administered the fractional Hcy excretion raised 60 fold to 6.0%.
# plasma Hcy = details: iv Mesna for 5 days, cancer chemotherapy patients, from 12.3 μmol/L; cited from earlier work
# [8] = single 5 mg/kg pre-dialysis iv dose, n=5
smiles,measurement,setting,value
"O=S(=O)([O-])CCSSCCS(=O)(=O)[O-].[Na+].[Na+] [diMesna, Mesna disulfide]",metabolic reduction,[1],reduce diMesna to Mesna
"CC(=O)N[C@@H](CS)C(=O)O [NAC, n-acetylcysteine]",effect on pre-dialysis plasma tHcy,plasma tHcy,"small, non-significant decrease"
same,AUC of free Hcy vs time,protein bound Hcy,642+/−49.7
"O=S(=O)(O)CCS.[Na] [Mesna, sodium 2-mercaptoethane sulfonic acid]",free Hcy as % of the total plasma Hcy,albumin bound Hcy; 15 minute incubation,27.2% and 27%
same,Hcy in the free dialyzable form (ultrafiltrate),"albumin bound Hcy; 15 minute incubation at 37° C., plasma spiked with 30 μmol/L Hcy",8.2 µmol/L
same,dialysate Hcy with Mesna compared to control,plasma tHcy and cysteine; n=2,slight increase
same,pre-dialysis plasma tHcy lower with Mesna than control,"plasma tHcy and cysteine; next dialysis session 2 days later, P=0.047",2.3 µM
same,post-dialysis plasma cysteine,plasma tHcy and cysteine; [8],165.1 ± 7.4 µM
same,post-dialysis plasma tHcy,plasma tHcy and cysteine; [8],11.6 ± 1.7 µM
same,effect on post-dialysis cysteine,"[2]; 5 mg/kg iv, 3 patients, p=0.009",significant decrease
same,effect on post-dialysis tHcy,"[2]; 5 mg/kg iv, 3 patients, p=0.035",significant decrease
same,pre-dialysis plasma Hcy at second cycle after Mesna,"[2]; day 12, all patients",returned to baseline
same,time to decrease of total plasma homocysteine after administration,"[2]; intravenous Mesna, human subjects",≤ 30 min
same,"decrease in pre-dialysis plasma tHcy, day 9 vs day 7",[2]; patient 1,3.7 µmol/L
same,"decrease in pre-dialysis plasma tHcy, day 9 vs day 7",[2]; patient 2,1.1 µmol/L
same,"decrease in pre-dialysis plasma tHcy, day 9 vs day 7",[2]; patient 3,3.1 µmol/L
same,post-dialysis tHcy concentration,"[2]; single iv 5 mg/kg Mesna, 3 ESRD patients",10.1 µmol/L
same,additional decrease of total plasma Hcy compared to dialysis alone,[2]; single iv 5 mg/kg dose during dialysis,29%
same,UF Hcy following Mesna treatment,"[2]; undiluted ultrafiltrate, 2 patients",No increase
same,pKa of the thiol,[3],9.1
same,concentration at 14 study day,"[4]; human, plasma, intravenous, 5 mg/kg, end of the study period (day 14)",13.4 µM
same,concentration at 4 min,"[4]; human, plasma, shortly after administration, 5 mg/kg iv, 3 patients",296 µM
same,plasma Mesna concentration,"[4]; post-dialysis, 5 mg/kg iv, 3 patients",89.7 ± 32.5 µmol/L
same,plasma Mesna concentration,"[4]; second patient, ~3.5 hours after administration, at onset of nausea",~60 µmol/L
same,"tolerability, side effect","[5]; 5 mg/kg iv, two of 3 patients",mild nausea
same,elimination during dialysis,[6],first order elimination
same,effect on fraction of free dialyzable Hcy,"protein bound Hcy; 0 to 10 000 μM Mesna, plasma spiked 30 μM Hcy, n=6",concentration dependent increase
same,"AUC of thiol exchange, ESRD serum vs. healthy controls","protein bound Hcy; 300 μM Mesna, P>0.05",no significant difference
same,AUC of free Hcy vs time,protein bound Hcy,1023+/−86.0
same,time to maximal thiol exchange after Mesna addition,protein bound Hcy; further in vitro studies with plasma,≤ 2 min
same,rise of fractional Hcy excretion,[7]; 10 mg/kg oral dose vs absence of Mesna,60 fold
same,decrease in plasma tHcy concentration,"[7]; 10 mg/kg oral dose, 2 subjects with normal kidney function",1.5 µM
same,fractional excretion of Hcy ([CLHcy/CLCreat]*100),"[7]; 10 mg/kg oral dose, normal kidney function",6.0%
same,plasma Hcy after Mesna,plasma Hcy,1.4 µmol/L
CN(C)CCOC(c1ccccc1)c1ccccc1.Cn1c(=O)c2[nH]c(Cl)nc2n(C)c1=O [dimenhydrinate],time to reversal of nausea symptoms,[5]; administration of dimenhydrinate to patients with Mesna-associated nausea,≤ 1 min
N[C@@H](CCS)C(=O)O [homocysteine],pKa of the thiol,[3],8.7
N[C@@H](CS)C(=O)O [cysteine],pKa of the thiol,[3],8.15
